Test results taken from patent publication US20230250060A1 (IFM Due, Inc., priority 2022, published 2023).

Biological target: T1, STING (Homo sapiens, UniProt Q86WV6, G230A/H232R/R293Q/R71H)
T1 construct: host or cells: THP1-Dual KO-IFNAR2 cells
Test: STING reporter assay (luciferase) in THP1-Dual KO-IFNAR2 cells stimulated with 2′3′cGAMP
Assay type: cell-based
Conditions: 2′3′cGAMP 15 μM final, 24 h, luciferase reporter activity, read-out: Pharmaron, THP1_IFNAR2 STING 24 h Luci Normalized: GeoMean EC50
Procedure, shortened: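 THP1-Dual KO-IFNAR2 cells (2×10E6 cells/mL) exposed to compounds at 0.0017-100 μM final and stimulated with 2′3′cGAMP (15 μM final) delivered via Lipofectamine 2000. After 24 h at 37° C., secreted luciferase in supernatant read with QUANTI-Luc Plus; EC50 derived from luminescence.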

T1 sequence (Q86WV6 whole entry R71H/G230A/H232R/R293Q): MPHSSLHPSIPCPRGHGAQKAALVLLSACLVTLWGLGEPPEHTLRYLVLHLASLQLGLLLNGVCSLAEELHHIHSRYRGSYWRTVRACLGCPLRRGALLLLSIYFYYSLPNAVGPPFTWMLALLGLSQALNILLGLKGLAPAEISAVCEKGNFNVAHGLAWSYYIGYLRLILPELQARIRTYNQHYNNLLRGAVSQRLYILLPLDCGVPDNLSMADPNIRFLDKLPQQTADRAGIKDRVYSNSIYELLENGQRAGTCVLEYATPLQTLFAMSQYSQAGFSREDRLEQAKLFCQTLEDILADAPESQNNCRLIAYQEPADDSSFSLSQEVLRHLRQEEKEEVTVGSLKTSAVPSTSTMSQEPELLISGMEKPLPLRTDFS

Row | Compound | EC50 [nM]
1 | O=C(Nc1c[nH]c2ccc(O[C@H]3C[C@H](c4ccc(C(F)(F)F)nc4)C3)cc12)c1ccc(C(F)(F)F)cc1 [Compound 213, 4-(trifluoromethyl)-N-(5-(trans-3-(6-(trifluoromethyl)pyridin-3-yl)cyclobutoxy)-1H-indol-3-yl)benzamide] | 200 to 1000
2 | O=C(Nc1c[nH]c2ccc(CCOc3ccc(C(F)(F)F)cc3)cc12)c1ncccc1F [Compound 117, 3-fluoro-N-(5-(2-(4-(trifluoromethyl)phenoxy)ethyl)-1H-indol-3-yl)picolinamide] | 200 to 1000
3 | O=C(Nc1c[nH]c2ccc(OCc3ccc(C(F)(F)F)cc3)cc12)c1ccccn1 [Compound 149, N-(5-((4-(trifluoromethyl)benzyl)oxy)-1H-indol-3-yl)picolinamide] | 5000 to 100000
4 | O=C(Nc1c[nH]c2ccc(Oc3ccccc3)cc12)c1cnn(Cc2ccc(C(F)(F)F)cc2)c1 [Compound 246, N-(5-phenoxy-1H-indol-3-yl)-1-(4-(trifluoromethyl)benzyl)-1H-pyrazole-4-carboxamide] | 40 to 200
5 | Cn1ccnc1C(=O)Nc1c[nH]c2ccc(O[C@H]3C[C@H](c4ccc(C(F)(F)F)cc4)C3)cc12 [Compound 220, 1-methyl-N-{5-[(1R,3R)-3-[4-(trifluoromethyl)phenyl]cyclobutoxy]-1H-indol-3-yl}-1H-imidazole-2-carboxamide] | 200 to 1000
6 | O=C(Nc1c[nH]c2ccc(OCC[C@@H]3C[C@@H]4CN(CC(F)(F)F)C[C@@H]4C3)cc12)C1CC12CC2 (stereo partly drawn) [Compound 158, N-(5-(2-((3aR,5r,6aS)-2-(2,2,2-trifluoroethyl)octahydrocyclopenta[c]pyrrol-5-yl)ethoxy)-1H-indol-3-yl)spiro[2.2]pentane-1-carboxamide] | 1000 to 5000
7 | O=C(Nc1c[nH]c2ccc(OCC[C@@H]3C[C@@H]4CN(CC(F)(F)F)C[C@@H]4C3)cc12)C12CC(F)(C1)C2 [Compound 185, 3-fluoro-N-(5-(2-((3aR,5r,6aS)-2-(2,2,2-trifluoroethyl)octahydrocyclopenta[c]pyrrol-5-yl)ethoxy)-1H-indol-3-yl)bicyclo[1.1.1]pentane-1-carboxamide] | 200 to 1000
8 | O=C(Nc1c[nH]c2ccc(OCCc3ccc(C(F)(F)F)cc3)cc12)c1cn(-c2cnc(N3CCC(F)(F)CC3)c(F)c2)nn1 [Compound 245, 1-(6-(4,4-difluoropiperidin-1-yl)-5-fluoropyridin-3-yl)-N-(5-(4-(trifluoromethyl)phenethoxy)-1H-indol-3-yl)-1H-1,2,3-triazole-4-carboxamide] | 200 to 1000
9 | CC12CC(C(=O)Nc3c[nH]c4ccc(OCCc5ccc(C(F)(F)F)cc5)cc34)(C1)C2 [Compound 107, 3-methyl-N-(5-(4-(trifluoromethyl)phenethoxy)-1H-indol-3-yl)bicyclo[1.1.1]pentane-1-carboxamide] | 200 to 1000
10 | O=C(Nc1c[nH]c2ccc(OCc3ccc(C(F)(F)F)cc3)cc12)C12CC(F)(C1)C2 [Compound 138, 3-fluoro-N-(5-((4-(trifluoromethyl)benzyl)oxy)-1H-indol-3-yl)bicyclo[1.1.1]pentane-1-carboxamide] | 200 to 1000
11 | O=C(Nc1c[nH]c2ccc(OCc3ccc(C(F)(F)F)cc3)cc12)C1CC12CCC2 (stereo not drawn) [Compound 236, N-(5-{[4-(trifluoromethyl)phenyl]methoxy}-1H-indol-3-yl)spiro[2.3]hexane-1-carboxamide] | 40 to 200
12 | O=C(Nc1c[nH]c2ccc(COCc3ccc(C(F)(F)F)cc3)cc12)C12CC(F)(C1)C2 [Compound 134, 3-fluoro-N-(5-(((4-(trifluoromethyl)benzyl)oxy)methyl)-1H-indol-3-yl)bicyclo[1.1.1]pentane-1-carboxamide] | 200 to 1000
13 | O=C(Nc1c[nH]c2ccc(O[C@H]3C[C@@H](c4ccc(C(F)(F)F)cc4)C3)cc12)C12CC(O)(C1)C2 [Compound 204, 3-hydroxy-N-(5-(cis-3-(4-(trifluoromethyl)phenyl)cyclobutoxy)-1H-indol-3 yl)bicyclo[1.1.1]pentane-1-carboxamide] | 1000 to 5000
14 | CC1(C(=O)Nc2c[nH]c3ccc(OCC[C@@H]4C[C@@H]5CN(CC(F)(F)F)C[C@@H]5C4)cc23)CC2(COC2)C1 [Compound 205, 6-methyl-N-(5-(2-((3aR,5r,6aS)-2-(2,2,2-trifluoroethyl)octahydrocyclopenta[c]pyrrol-5-yl)ethoxy)-1H-indol-3-yl)-2-oxaspiro[3.3]heptane-6-carboxamide] | 200 to 1000
15 | O=C(Nc1c[nH]c2ccc(CCOc3ccc(C(F)(F)F)cc3)cc12)c1nccs1 [Compound 201, N-(5-(2-(4-(trifluoromethyl)phenoxy)ethyl)-1H-indol-3-yl)thiazole-2-carboxamide] | 200 to 1000
16 | Cn1cc(C(=O)Nc2c[nH]c3ccc(O[C@H]4C[C@@H](c5ccc(C(F)(F)F)cc5)C4)cc23)nn1 [Compound 241] | 200 to 1000
17 | O=C(Nc1c[nH]c2ccc(OCc3ccc(C(F)(F)F)cc3)cc12)c1cscn1 [Compound 165, N-(5-((4-(trifluoromethyl)benzyl)oxy)-1H-indol-3-yl)thiazole-4-carboxamide] | 1000 to 5000

Row | Compound | EC50 [nM]
18 | Cc1noc(C)c1C(=O)Nc1c[nH]c2ccc(O[C@H]3C[C@@H](c4ccc(C(F)(F)F)cc4)C3)cc12 [Compound 177, 3,5-dimethyl-N-(5-((1s,3s)-3-(4-(trifluoromethyl)phenyl)cyclobutoxy)-1H-indol-3-yl)isoxazole-4-carboxamide] | 40 to 200
19 | O=C(Nc1c[nH]c2ccc(OCc3ccc(C(F)(F)F)cc3)cc12)c1ccn[nH]1 [Compound 137, N-(5-((4-(trifluoromethyl)benzyl)oxy)-1H-indol-3-yl)-1H-pyrazole-5-carboxamide] | 200 to 1000
20 | O=C(Nc1c[nH]c2ccc(CCOc3ccc(C(F)(F)F)cc3)cc12)c1cscn1 [Compound 202, N-(5-(2-(4-(trifluoromethyl)phenoxy)ethyl)-1H-indol-3-yl)thiazole-4-carboxamide] | 200 to 1000
21 | Cc1noc(C)c1C(=O)Nc1c[nH]c2ccc(OCC[C@@H]3C[C@@H]4CN(CC(F)(F)F)C[C@@H]4C3)cc12 [Compound 189, 3,5-dimethyl-N-(5-(2-((3aR,5r,6aS)-2-(2,2,2-trifluoroethyl)octahydrocyclopenta[c]pyrrol-5-yl)ethoxy)-1H-indol-3-yl)isoxazole-4-carboxamide] | 200 to 1000
22 | O=C(Nc1c[nH]c2ccc(O[C@H]3C[C@H](c4ccc(C(F)(F)F)cc4)C3)cc12)C1CC2(CC2)C1 [Compound 229, N-{5-[(1R,3R)-3-[4-(trifluoromethyl)phenyl]cyclobutoxy]-1H-indol-3-yl}spiro[2.3]hexane-5-carboxamide] | 40 to 200
23 | Cc1noc(C)c1C(=O)Nc1c[nH]c2ccc(O[C@H]3C[C@H](c4ccc(C(F)(F)F)cc4)C3)cc12 [Compound 234, 3,5-dimethyl-N-{5-[(1R,3R)-3-[4-(trifluoromethyl)phenyl]cyclobutoxy]-1H-indol-3-yl}-1,2-oxazole-4-carboxamide] | 200 to 1000
24 | O=C(Nc1c[nH]c2ccc(O[C@H]3C[C@H](c4ccc(C(F)(F)F)cc4)C3)cc12)C1CC2(COC2)C1 [Compound 211, N-{5-[(1R,3R)-3-[4-(trifluoromethyl)phenyl]cyclobutoxy]-1H-indol-3-yl}-2-oxaspiro[3.3]heptane-6-carboxamide] | 40 to 200
25 | O=C(Nc1c[nH]c2ccc(CCOc3ccc(C(F)(F)F)cc3)cc12)c1cncs1 [Compound 120, N-(5-(2-(4-(trifluoromethyl)phenoxy)ethyl)-1H-indol-3-yl)thiazole-5-carboxamide] | 200 to 1000
26 | CC12CC(C(=O)Nc3c[nH]c4ccc(OCC[C@@H]5C[C@@H]6CN(CC(F)(F)F)C[C@@H]6C5)cc34)(C1)C2 [Compound 142, 3-methyl-N-(5-(2-((3aR,5r,6aS)-2-(2,2,2-trifluoroethyl)octahydrocyclopenta[c]pyrrol-5-yl)ethoxy)-1H-indol-3-yl)bicyclo[1.1.1]pentane-1-carboxamide] | 200 to 1000
27 | Cn1nccc1C(=O)Nc1c[nH]c2ccc(OCCc3ccc(C(F)(F)F)cc3)cc12 [Compound 203, 1-methyl-N-(5-(4-(trifluoromethyl)phenethoxy)-1H-indol-3-yl)-1H-pyrazole-5-carboxamide] | 200 to 1000
28 | Cc1oncc1C(=O)Nc1c[nH]c2ccc(OCCc3ccc(C(F)(F)F)cc3)cc12 [Compound 111] | 5000 to 100000
29 | O=C(CC1CC1)Nc1c[nH]c2ccc(O[C@H]3C[C@@H](c4ccc(C(F)(F)F)cc4)C3)cc12 [Compound 102, 2-cyclopropyl-N-(5-((1s,3s)-3-(4-(trifluoromethyl)phenyl)cyclobutoxy)-1H-indol-3-yl)acetamide] | 40 to 200
30 | O=C(Nc1c[nH]c2ccc(OCc3ccc(C(F)(F)F)cc3)cc12)c1cccnc1 [Compound 148, N-(5-((4-(trifluoromethyl)benzyl)oxy)-1H-indol-3-yl)nicotinamide] | 200 to 1000
31 | O=C(Nc1c[nH]c2ccc(O[C@H]3C[C@H](c4ccc(C(F)(F)F)cc4)C3)cc12)C12CC(C1)C2 [Compound 212, N-{5-[(1R,3R)-3-[4-(trifluoromethyl)phenyl]cyclobutoxy]-1H-indol-3-yl}bicyclo[1.1.1]pentane-1-carboxamide] | 40 to 200
32 | N#CC12CC(C(=O)Nc3c[nH]c4ccc(COCc5ccc(C(F)(F)F)cc5)cc34)(C1)C2 [Compound 129, 3-cyano-N-(5-(((4-(trifluoromethyl)benzyl)oxy)methyl)-1H-indol-3-yl)bicyclo[1.1.1]pentane-1-carboxamide] | 200 to 1000
33 | O=C(Nc1c[nH]c2ccc(OCCc3ccc(C(F)(F)F)cc3)cc12)C12CC(F)(C1)C2 [Compound 108, 3-fluoro-N-(5-(4-(trifluoromethyl)phenethoxy)-1H-indol-3-yl)bicyclo[1.1.1]pentane-1-carboxamide] | 200 to 1000
